Data set [1] is described as follows: pharmacokinetics of GA metabolites in EHBRs orally treated with GA. Conditions: Eisai hyperbilirubinuria rat (EHBR), rat, plasma, 200 mg/kg, GA 0.20 g/kg oral, read-out: plasma concentration 12 h after oral administration of GA. The class given is in vivo, Eisai hyperbilirubinuria rats (EHBRs). As to the method:
Pharmacokinetic Experiments of GA Metabolites in EHBRs Orally Treated With GA
Male and female EHBRs (9 week-old) were anaesthetized by an intraperitoneal injection of urethane (1 g/kg) and their jugular veins were exposed. GA suspended in 0.5% carboxymethylcellulose was then administered orally (200 mg/kg) to the unconscious rats, and blood samples were collected from the jugular vein while urine samples were collected using a metabolic cage at appropriate times over a 12 h period.
LC-MS/MS Analysis for GA Metabolites
(§1) Briefly, after diluting serum and urine samples with water to obtain suitable concentrations, they were digested with subtilisin (0.91 U/ml), followed by the addition of astragaloside IV (used as an internal standard; Fujifilm Wako Pure Chemicals, Osaka, Japan), and deproteinized using 80% ethanol. […] The transitions (precursor to daughter) monitored and retention times were as follows: ESI(+), 743.4 to 567.5 m/z (35 and 25 V for cone voltage and collision energy, respectively) for compound 1 (8.1 min); ESI(–), 565.5 to 96.5 m/z (80 and 60 V) for 2 (9.6 min); ESI(–), 549.5 to 96.5 m/z (80 and 60 V) for 3 (15.4 min); ESI(+), 727.3 to 551.2 m/z (30 and 25 V) for 4 (11.3 min); ESI(+), 647.6 to 453.6 m/z (40 and 20 V) for 3MGA (15.0 min); ESI(+), 471.3 to 91.0 m/z (40 and 20 V) for GA (13.4 min); ESI(+), 823.5 to 453.6 m/z (30 and 20 V) for GL (18.4 min); and ESI(+), 785.4 to 143.0 m/z (30 and 20 V) for astragaloside IV (3.0 min). Linear regressions over the concentration range of 2 nM to 2 µM for each compound were examined using the peak-area ratio of the compounds to their internal standards and the least-squares method (r ^ 2 > 0.98). The detection limits for 1, GL, and GA were 6.4 nM, and those for 2, 3, and 4, and 3MGA were 3.2 nM.
FIGURE 5 Pharmacokinetic profiles of glycyrrhizin (GL) metabolites in female (A–C) and male (D–F) Eisai hyperbilirubinuria rats (EHBRs). […] Data of GA, 3MGA, 1, 2, and 3 in (A) and GA, 3MGA, 2, and 3 for (D) are relatively small; their magnified graphs are shown in (B,E), respectively. Concentrations of GA metabolites were measured using liquid chromatography-tandem mass spectrometry (LC-MS/MS), and data are means ± standard error (S.E: n = 4).

Data set [2] can be described thus: measurement of GL metabolites in human serum and urine samples (LC-MS/MS). Format: in vivo. As to the method: Measurement of Compound 4 in Human Serum Samples
Human serum samples (100 µl) were pre-treated as described in the protocol reported in our previous study ([Takahashi et al., 2019]), and the concentration of 4 was measured using LC-tandem mass spectrometry (MS/MS) as described below. This study was conducted with the approval of the appropriate ethics committee at Keio University, Chiba University, Kanazawa University, and Kameda Medical Center.
as §1

In data set [3] the target is T1, rat type-2 11β-hydroxysteroid dehydrogenase (11β-HSD2) (Rattus norvegicus, UniProt P50233).
T1 construct: from tissue; host or cells: rat kidney microsome fraction
T1 sequence (P50233 1-400): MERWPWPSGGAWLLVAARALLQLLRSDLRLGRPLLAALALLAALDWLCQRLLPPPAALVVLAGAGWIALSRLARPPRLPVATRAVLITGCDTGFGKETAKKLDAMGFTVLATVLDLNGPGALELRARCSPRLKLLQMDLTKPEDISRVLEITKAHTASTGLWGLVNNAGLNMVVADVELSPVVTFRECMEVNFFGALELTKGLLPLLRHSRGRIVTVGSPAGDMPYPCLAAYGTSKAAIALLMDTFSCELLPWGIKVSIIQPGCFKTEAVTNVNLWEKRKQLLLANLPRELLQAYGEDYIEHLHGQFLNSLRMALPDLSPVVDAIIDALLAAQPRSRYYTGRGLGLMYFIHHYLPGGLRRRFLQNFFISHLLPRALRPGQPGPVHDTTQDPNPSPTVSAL
Kind of data set: in vitro 11β-HSD2 activity using rat kidney microsomes. Format: biochemical. Conditions: rat kidney microsome fraction, 37°C, 30 min. How it is done: Determination of in vitro 11β-HSD2 Activity Using Rat Kidney Microsomes
Then, the amount of [^3H] cortisol was measured. […] Kidneys were collected from normal Sprague-Dawley (SD) rats and slices were incubated with plasma samples of female EHBRs at 37°C or 4°C for 2 h, and then homogenized. […] HEK293 cells transfected with OAT1 or OAT3 were incubated with 1:2 diluted plasma samples of male EHBRs at 37°C for 15 min. Then, concentrations of 4 in cells were measured using LC-MS/MS.

The nature of data set [4]: binding of compound 4 to albumin in pooled EHBR plasma (ultrafiltration). As to conditions: female, Eisai hyperbilirubinuria rat (EHBR), rat, 200 mg/kg; pooled plasma of EHBRs 12 h after oral GA. The class given is in vitro ADME, Eisai hyperbilirubinuria rats (EHBRs). As to the method: (§2) Binding of Compound 4 to Albumin
(§3) We measured the binding ratios of 4 to albumin in pooled plasma of female EHBRs using the same protocol used in our previous study ([Ishiuchi et al., 2019]).
(§4) The pooled plasma samples collected from EHBRs 12 h after oral treatment with GA were loaded into ultracentrifuge filters with a 1 × 10^4 molecular weight cut-off and concentrated by centrifugation. The concentrations of 4 in the pooled plasma and the filtrate were 77 µM and undetectable, respectively. Based on the detection limits (3.2 nM) in the LC-MS/MS analysis, the albumin-binding ratios of 4 in the plasma was calculated to be more than 99.9%.

Another data set deals with T2, albumin (Rattus norvegicus, UniProt P02770).
T2 construct: from tissue; host or cells: pooled plasma of EHBRs orally treated with GA
T2 sequence (P02770 25-608): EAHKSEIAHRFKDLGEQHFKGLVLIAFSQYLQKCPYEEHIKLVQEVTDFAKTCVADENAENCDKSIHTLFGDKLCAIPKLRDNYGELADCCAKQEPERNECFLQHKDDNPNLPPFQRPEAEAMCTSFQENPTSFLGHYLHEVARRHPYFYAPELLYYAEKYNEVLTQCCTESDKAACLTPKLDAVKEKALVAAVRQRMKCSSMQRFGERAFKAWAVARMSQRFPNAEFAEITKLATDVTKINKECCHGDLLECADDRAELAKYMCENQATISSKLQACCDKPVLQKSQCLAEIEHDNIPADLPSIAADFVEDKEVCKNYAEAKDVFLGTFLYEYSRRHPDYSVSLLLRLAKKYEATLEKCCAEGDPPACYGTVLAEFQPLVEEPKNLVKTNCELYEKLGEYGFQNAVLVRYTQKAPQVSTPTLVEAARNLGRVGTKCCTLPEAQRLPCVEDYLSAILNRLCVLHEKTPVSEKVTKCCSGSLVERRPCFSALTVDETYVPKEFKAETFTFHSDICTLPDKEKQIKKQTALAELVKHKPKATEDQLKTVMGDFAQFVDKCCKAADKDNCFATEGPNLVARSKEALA
Described as above. The class given is in vitro ADME, Eisai hyperbilirubinuria rats (EHBRs). How it is done: as §2, §3, §4

The source of these data is article PMC8165744, “Identification of an Alternative Glycyrrhizin Metabolite Causing Liquorice-Induced Pseudohyperaldosteronism and the Development of ELISA System to Detect the Predictive Biomarker” (Frontiers in Pharmacology, 2021).

What is called IC50 is the midpoint of a concentration-inhibition curve. With `CC1(C)[C@@H](OS(=O)(=O)O)CC[C@]2(C)[C@H]3C(=O)C=C4[C@@H]5C[C@@](C)(C(=O)O[C@@H]6O[C@H](C(=O)O)[C@@H](O)[C@H](O)[C@H]6O)CC[C@]5(C)CC[C@@]4(C)[C@]3(C)CC[C@@H]12` [Compound 4, 18β-glycyrrhetyl-3-O-sulfate-30-O-glucuronide], the results for the concentration at 12 h in data set [1] (female EHBRs), in data set [1] (male EHBRs) and in data set [4] were 208 µM, 237 µM and 77 µM, respectively. For the same compound, the “serum concentration of 4 relative to that of 3 (fold lower)” value in data set [2] (human serum, patients with suspected pseudohyperaldosteronism) is on record as “approximately 10 fold”. Also, the concentration in urine in data set [2] (human, one urine sample among 20 available samples) was 0.003 µM. Also, the “number of serum samples in which compound was detected” value in data set [2] (of 70 participants taking liquorice-containing herbal preparations) stood at 62 samples. The same compound yielded an IC50 in data set [3] of 380 nM. Moreover, on albumin (pooled EHBR plasma, 1 × 10^4 MW cut-off filter, calculated from detection limit 3.2 nM), the “albumin-binding ratio in plasma” value is recorded as “more than 99.9%”. Further, the concentration in filtrate result on albumin (ultracentrifuge filtrate of pooled EHBR plasma) is reported as “undetectable”.
